Experimental data from the NIST ThermoML archive (doi:10.1016/j.jct.2019.04.010).

How the values were obtained:
[1] = 100 kPa, Liquid; for viscosity: Concentric cylinders viscometry; for mass density: Vibrating tube method
[2] = xn = mol fraction of the nth substance listed; conditions: 100 kPa, Liquid, x2 = 0; for viscosity: Concentric cylinders viscometry; for mass density: Vibrating tube method

CCCCn1cc[n+](C)c1.O=[N+]([O-])[O-] [1-butyl-3-methylimidazolium nitrate]
[1]
Conditions	mass density [kg/m3]	viscosity [mPa·s]
293.15 K	1158.3	223.54
298.15 K	1155.2	168.97
303.15 K	1152.3	125.36
308.15 K	1149.3	96.74
313.15 K	1146.5	75.12
318.15 K	1143.8	56.28
323.15 K	1141.2	45.17

CCCC(C)O (stereo unspecified) [pentan-2-ol] + CCCCn1cc[n+](C)c1.O=[N+]([O-])[O-]
[2]
Conditions	mass density [kg/m3]	viscosity [mPa·s]
293.15 K	809.3	3.97
298.15 K	805.3	3.32
303.15 K	801.2	2.81
308.15 K	797	2.37
313.15 K	792.7	1.99
318.15 K	788.4	1.66
323.15 K	784	1.39

CC(C)O [propan-2-ol] + CCCCn1cc[n+](C)c1.O=[N+]([O-])[O-]
[2]
Conditions	mass density [kg/m3]	viscosity [mPa·s]
293.15 K	785.4	2.42
298.15 K	781.1	2.08
303.15 K	776.8	1.8
308.15 K	772.4	1.56
313.15 K	768	1.36
318.15 K	763.4	1.19
323.15 K	758.8	1.05

CCC(C)O (stereo unspecified) [butan-2-ol] + CCCCn1cc[n+](C)c1.O=[N+]([O-])[O-]
[2]
Conditions	mass density [kg/m3]	viscosity [mPa·s]
293.15 K	806.7	3.67
298.15 K	802.7	3.04
303.15 K	798.4	2.54
308.15 K	794.1	2.13
313.15 K	789.8	1.8
318.15 K	785.2	1.54
323.15 K	780.6	1.33
